The values that follow come from patent publication US20040091949A1, “Method of screening drug acting on cell wall” (priority 2000, published 2004).

The subject of test [1] is AY-12 strain (membrane-type arming yeast). The test can be described thus: GFP releasing effect of available antifungal agents, membrane-type arming yeast. The test is classed as cell-based, S. cerevisiae. The settings on record: RPMIB medium protected for osmotic pressure, supernatant fluorescence, difference from control with no agent. On the procedure:
(§1) The cultured yeast cells in the logarithmic growth phase (AY-2 strain or AY-12 strain) were collected, and various agents were allowed to act on the yeast cells. Fluorescence intensity of the culture supernatant was measured by using Cytofluor 2300 Fluorometer (Millipore, excitation=480 nm, emission=530 nm). The fluorescence intensity under treatment with each of various agents was shown in terms of a difference in fluorescence intensity compared with that of a control in which no agent was added.
(§2) In order to ascertain whether or not the method of the present invention can be utilized for a screening of agents with a targeting site other than Kre6p, the GFP releasing effects in the AY-2 strain (wall-type arming yeast) and the AY-12 strain (membrane-type arming yeast) were compared under actions of available antifungal agents. The AY-2 strain cells and the AY-12 strain cells each cultured in a test tube were floated on a medium (RPMIB) protected for osmotic pressure, and each of the agents was allowed to act on the cells. After the culture, the fluorescence intensity of the supernatant was measured, and a difference from that of a control with no addition of the agent was calculated.

The test system of test [2] is AY-2 strain (wall-type arming yeast). The test can be described thus: GFP releasing effect of available antifungal agents, wall-type arming yeast. The test is classed as cell-based, S. cerevisiae. The settings on record: RPMIB medium protected for osmotic pressure, supernatant fluorescence, difference from control with no agent. On the procedure: as §1, §2

Consider Tunicamycin, for which the results for the GFP releasing effect result in test [1] and in test [2] were “almost no releasing effect” and “Marked GFP releasing effect”, respectively.

With Aculeacin A, the GFP releasing effect entry in test [1] was “almost no releasing effect”; in test [2] it was “Marked GFP releasing effect”.

For `C[C@@H]1[C@H](O)[C@@H](C)/C=C/C=C/C=C/C=C/C=C/C=C/C=C/[C@H](O[C@@H]2O[C@H](C)[C@@H](O)[C@H](N)[C@@H]2O)C[C@@H]2O[C@](O)(C[C@@H](O)C[C@@H](O)[C@H](O)CC[C@@H](O)C[C@@H](O)CC(=O)O[C@H]1C)C[C@H](O)[C@H]2C(=O)O` [Amphotericin B], the GFP releasing effect entry in test [1] and in test [2] was “Slight releasing effect” throughout.

Consider `CC[C@@H](C(=O)[C@@H](C)[C@@H](O)[C@H](C)[C@@H]1O[C@@H]([C@@H](CC)C(=O)O)CC[C@@H]1C)[C@H]1O[C@]2(C=C[C@@H](O)[C@]3(CC[C@@](C)([C@H]4CC[C@](O)(CC)[C@H](C)O4)O3)O2)[C@H](C)C[C@@H]1C` [Salinomycin], for which the GFP releasing effect entry in test [1] and in test [2] was “Slight releasing effect” in each case.

Turning to `OC(Cn1cncn1)(Cn1cncn1)c1ccc(F)cc1F` [Fluconazole], the GFP releasing effect result in test [1] and in test [2] was “Slight releasing effect” each time.
